Source: US20130281463A1, “DIAZA-SPIRO[5.5]UNDECANES USEFUL AS OREXIN RECEPTOR ANTAGONISTS” (NOVARTIS AG, priority 2010, published 2013)
Where two headings read alike, the source gives them in different places.

Columns and labels:
[1] = target: T1, human orexin 1 receptors (Homo sapiens, UniProt O43613); assay: Calcium accumulation in cells (FLIPR), hOx1R
T1 sequence (O43613 1-425): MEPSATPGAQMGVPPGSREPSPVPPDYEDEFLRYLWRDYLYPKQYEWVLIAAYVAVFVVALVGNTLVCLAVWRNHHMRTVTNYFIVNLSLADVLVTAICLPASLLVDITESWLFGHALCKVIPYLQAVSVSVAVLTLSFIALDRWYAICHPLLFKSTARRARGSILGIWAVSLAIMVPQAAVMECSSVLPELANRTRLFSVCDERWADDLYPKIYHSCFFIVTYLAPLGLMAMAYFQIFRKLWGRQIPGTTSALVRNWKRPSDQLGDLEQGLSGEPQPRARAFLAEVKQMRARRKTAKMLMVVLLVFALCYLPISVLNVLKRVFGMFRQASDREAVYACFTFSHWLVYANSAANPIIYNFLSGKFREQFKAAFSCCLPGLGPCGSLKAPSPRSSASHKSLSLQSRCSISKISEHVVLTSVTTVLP
Procedure: (§1) Cells expressing human orexin 1 or human orexin 2 receptors, were seeded at 8,000 cells/well in 384 well black-walled clear bottom, poly-D-lysine coated plates. After 24 h, the medium was removed and cells were washed once with phosphate buffered saline and serum-deprived overnight in assay buffer (130 mM NaCl, 5.4 mM KCl, 1.8 mM CaCl2, 0.8 mM MgSO4, 0.9 mM NaH2PO4, 25 mM glucose, 20 mM HEPES, pH 7.4) containing bovine serum albumin (1% w/v).
On the day of the experiment, the cells seeded in black plates were treated with assay buffer containing the Ca^2+ sensitive fluorescent dye Fluo4-AM (2 μM), and probenecid (0.1 mM). After 1 h plates were washed twice with, and resuspended in, assay buffer containing probenecid (0.1 mM) using a multi plate washer. The plates were placed into a FLIPR II (Fluorometric Imaging Plate Reader, Molecular Devices, Sunnyvale, Calif., USA) and baseline fluorescence (fluorescence light units, FLU) was measured (5 measurements, 2 S each; laser excitation 488 nm at 0.6-1 W, CCD camera exposure 0.4 s) before addition of buffer alone (basal) or containing test compounds (either compound of formula I alone, agonist alone or agonist in the presence of various concentrations of compounds of formula I). Fluorescence measurements were then continued every 1 S for 120 S followed by every 4 S for 240 S.
(§2) Compounds of formula I were tested usually in a concentration range from 10^−9 M to 10^−5M.
(§3) In the second round, performed one hour later (to allow for equilibration), Orexin A was tested either in the absence (calibration curves, Orexin A agonist controls) or in the presence of compounds of formula I to determine antagonism.
Inhibition data is expressed in Table 2 as Ki [μM], converted by the Cheng and Prusoff correction (Ki=IC50/1+(L/EC50)), where IC50 is the 50% inhibition value determined in concentration response inhibition curves, EC50 is the half maximal activation concentration determined for orexin A in concentration response curves and L is the concentration of orexin A used in inhibition experiments performed in with a submaximal concentration of orexin A in the presence of up to 8 increasing concentrations of compound of formula I. Inhibition data is also expressed in Table 2 as % inhibition value measured at a concentration of 10 μM of selected compounds of formula I.

[2] = target: T2, human orexin 2 receptors (Homo sapiens, UniProt O43614); assay: Calcium accumulation in cells (FLIPR), hOx2R; assay type: cell-based; details: inhibition of orexin A induced calcium accumulation; Cheng and Prusoff correction
T2 construct: expressed in transfected cells
T2 sequence (O43614 1-444): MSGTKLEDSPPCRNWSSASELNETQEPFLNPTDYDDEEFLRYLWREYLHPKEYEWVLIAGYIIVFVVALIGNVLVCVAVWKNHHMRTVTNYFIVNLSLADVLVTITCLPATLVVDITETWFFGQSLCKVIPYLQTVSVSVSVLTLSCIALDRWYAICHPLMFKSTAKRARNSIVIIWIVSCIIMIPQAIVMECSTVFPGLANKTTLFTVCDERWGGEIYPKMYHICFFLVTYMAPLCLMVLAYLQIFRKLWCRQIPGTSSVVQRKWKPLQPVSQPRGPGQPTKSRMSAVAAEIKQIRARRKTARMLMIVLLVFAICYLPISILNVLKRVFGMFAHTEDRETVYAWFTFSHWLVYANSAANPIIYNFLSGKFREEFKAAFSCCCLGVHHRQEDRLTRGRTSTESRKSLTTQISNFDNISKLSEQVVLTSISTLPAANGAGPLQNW
Procedure: as §1
On the day of the experiment, the cells seeded in black plates were treated with assay buffer containing the Ca^2+ sensitive fluorescent dye Fluo4-AM (2 μM), and probenecid (0.1 mM). After 1 h plates were washed twice with, and resuspended in, assay buffer containing probenecid (0.1 mM) using a multi plate washer. […] Fluorescence measurements were then continued every 1 S for 120 S followed by every 4 S for 240 S.
as §2, §3

[3] = target: T1, human orexin 1 receptors; assay: Radioligand binding assay ([3H]-SB649868 competition), hOx1R; parameters: expressed in transfected cells; details: competition with about 1 nM [3H]-SB649868, cell membranes
Procedure: The cell pellet was either stored at −80° C. or used directly. Before the experiments, cell membranes were re-suspended in binding assay buffer (10 mM HEPES, 0.5% (w/v) bovine serum albumin, pH 7.5) by homogenisation with a Polytron homogeniser at 50 Hz for 20 s. Cell membranes were also used as made available by commercial providers.
Bound radioactivity was measured, and data were analysed with the program XLFIT or Graphpad Prism. Protein concentration was determined according to the Bradford/BioRad Protein Assay Kit.
In competition experiments, cell homogenates (150 μl) were incubated in assay buffer (10 mM HEPES, pH 7.5, 0.5% (w/v) bovine serum albumin, 5 mM MgCl2, 1 mM CaCl2, and tween 0.05%) for 1 h at room temperature with about 1 nM of the radioligand [^3H]-SB649868, 66 Ci/mmole, 50 μl), and with various concentrations of compounds of the invention (50 μl) in triplicates; non-specific binding was determined in the presence of almorexant (10 μM). Reactions were terminated by vacuum filtration, 3 washes of ice cold wash buffer (Tris-HCl pH 7.4/10 mM, with NaCl 154 mM). Competition data is expressed in Table 2 as Kd [μM].

[4] = target: T2, human orexin 2 receptors; assay: Radioligand binding assay ([3H]-SB649868 competition), hOx2R; details: competition with about 1 nM [3H]-SB649868, cell membranes
Procedure: For crude cell membrane preparations, cells (CHO, Chinese hamster ovary or HEK, human embryonic kidney) expressing human orexin 1 or human orexin 2 receptors, were washed with HEPES (10 mM, pH 7.5), scraped off the culture plates with the same buffer, and centrifuged at 4° C. for 5 min at 2500×g. The cell pellet was either stored at −80° C. or used directly. Before the experiments, cell membranes were re-suspended in binding assay buffer (10 mM HEPES, 0.5% (w/v) bovine serum albumin, pH 7.5) by homogenisation with a Polytron homogeniser at 50 Hz for 20 s.

[5] = read-out: FLIPR hOx1R Ki, inhibition of orexin A induced calcium accumulation, Cheng and Prusoff correction

Structure (SMILES) | Ki [1, 5] [nM] | Ki [2] [nM] | inhibition at 10 µM ([1]; read-out: FLIPR hOx1R % inhibition value) [%] | Ki [1] [nM] | Kd [3] [nM] | Kd [4] [nM]
Cc1cc(C)nc(N2CCC3(CCCN(Cc4ccccc4-c4nc(C)no4)C3=O)CC2)n1 [Example 1, 9-(4,6-dimethylpyrimidin-2-yl)-2-(2-(3-methyl-1,2,4-oxadiazol-5-yl)benzyl)-2,9-diazaspiro[5.5]undecan-1-one] | 1620 | 7 |  |  |  | 
COc1ccnc(N2CCC3(CCCN(Cc4c[nH]c5ccccc45)C3=O)CC2)n1 [Example 13, 2-((1H-indol-3-yl)methyl)-9-(4-methoxypyrimidin-2-yl)-2,9-diazaspiro[5.5]undecan-1-one] |  | 14 |  |  |  | 
O=C1N(Cc2cccc3c2OCCO3)CCCC12CCN(c1cncc(Cl)n1)CC2 [Example 21, 9-(6-chloropyrazin-2-yl)-2-((2,3-dihydrobenzo[b][1,4]dioxin-5-yl)methyl)-2,9-diazaspiro[5.5]undecan-1-one] |  | 247 | 26 |  |  | 
Cc1cc(C#N)nc(N2CCC3(CCCN(Cc4ccccc4-n4nccn4)C3=O)CC2)n1 [Example 25, 2-(2-(2-(2H-1,2,3-triazol-2-yl)benzyl)-1-oxo-2,9-diazaspiro[5.5]undecan-9-yl)-6-methylpyrimidine-4-carbonitrile] |  | 68 |  | 3700 | > 10000 | 389
COc1cncc(N2CCC3(CCCN(Cc4c[nH]c5ccccc45)C3=O)CC2)n1 [Example 82, 2-((1H-indol-3-yl)methyl)-9-(6-methoxypyrazin-2-yl)-2,9-diazaspiro[5.5]undecan-1-one] |  | 57 |  | 856 | > 10000 | 3160
COC(=O)c1ccc2[nH]cc(CN3CCCC4(CCN(c5nc(C)cc(C)n5)CC4)C3=O)c2c1 [Example 115, Methyl 3-((9-(4,6-dimethylpyrimidin-2-yl)-1-oxo-2,9-diazaspiro[5.5]undecan-2-yl)methyl)-1H-indole-5-carboxylate] | 21 | 0.7 |  |  |  | 
COc1cc(-c2nn(C)nc2CN2CCCC3(CCN(c4nc(C)cc(C)n4)CC3)C2=O)ccn1 [Example 122, 9-(4,6-dimethylpyrimidin-2-yl)-2-((5-(2-methoxypyridin-4-yl)-2-methyl-2H-1,2,3-triazol-4-yl)methyl)-2,9-diazaspiro[5.5]undecan-1-one] |  | 1.4 |  | 176 | 130 | 14
